Measurements as given in patent publication US9295673B2, “Combination of mTOR inhibitors and P13-kinase inhibitors, and uses thereof” (Intellikine LLC, priority 2011, dated 2016).
Where two headings read alike, the source gives them in different places. Each block holds one compound with its values, some of them ahead of it.

Columns and labels:
PI3K α = PI3K α (Homo sapiens, UniProt P42336); experiment: PI 3-Kinase (human) HTRF assay, PI3K α
PI3K γ = PI3K γ (Homo sapiens, UniProt P48736); experiment: PI 3-Kinase (human) HTRF assay, PI3K γ
mTOR = target: T1, mTOR (Homo sapiens, UniProt P42345); experiment: mTOR kinase inhibition assay (radiometric or LanthaScreen TR-FRET); assay type: biochemical; conditions: read-out: mTORC IC50
T1 construct: purchased Invitrogen

PI3K δ = PI3K δ (Homo sapiens, UniProt O00329); experiment: PI 3-Kinase (human) HTRF assay, PI3K δ; conditions: read-out: PI3K δ IC50
PI3K β = PI3K β (Homo sapiens, UniProt P42338); experiment: PI 3-Kinase (human) HTRF assay, PI3K β
[1] = read-out: PI3K α IC50, in vitro
[2] = read-out: PI3K γ IC50, in vitro
[3] = read-out: PI3K β IC50, in vitro

PI3K β, sequence (P42338 whole entry): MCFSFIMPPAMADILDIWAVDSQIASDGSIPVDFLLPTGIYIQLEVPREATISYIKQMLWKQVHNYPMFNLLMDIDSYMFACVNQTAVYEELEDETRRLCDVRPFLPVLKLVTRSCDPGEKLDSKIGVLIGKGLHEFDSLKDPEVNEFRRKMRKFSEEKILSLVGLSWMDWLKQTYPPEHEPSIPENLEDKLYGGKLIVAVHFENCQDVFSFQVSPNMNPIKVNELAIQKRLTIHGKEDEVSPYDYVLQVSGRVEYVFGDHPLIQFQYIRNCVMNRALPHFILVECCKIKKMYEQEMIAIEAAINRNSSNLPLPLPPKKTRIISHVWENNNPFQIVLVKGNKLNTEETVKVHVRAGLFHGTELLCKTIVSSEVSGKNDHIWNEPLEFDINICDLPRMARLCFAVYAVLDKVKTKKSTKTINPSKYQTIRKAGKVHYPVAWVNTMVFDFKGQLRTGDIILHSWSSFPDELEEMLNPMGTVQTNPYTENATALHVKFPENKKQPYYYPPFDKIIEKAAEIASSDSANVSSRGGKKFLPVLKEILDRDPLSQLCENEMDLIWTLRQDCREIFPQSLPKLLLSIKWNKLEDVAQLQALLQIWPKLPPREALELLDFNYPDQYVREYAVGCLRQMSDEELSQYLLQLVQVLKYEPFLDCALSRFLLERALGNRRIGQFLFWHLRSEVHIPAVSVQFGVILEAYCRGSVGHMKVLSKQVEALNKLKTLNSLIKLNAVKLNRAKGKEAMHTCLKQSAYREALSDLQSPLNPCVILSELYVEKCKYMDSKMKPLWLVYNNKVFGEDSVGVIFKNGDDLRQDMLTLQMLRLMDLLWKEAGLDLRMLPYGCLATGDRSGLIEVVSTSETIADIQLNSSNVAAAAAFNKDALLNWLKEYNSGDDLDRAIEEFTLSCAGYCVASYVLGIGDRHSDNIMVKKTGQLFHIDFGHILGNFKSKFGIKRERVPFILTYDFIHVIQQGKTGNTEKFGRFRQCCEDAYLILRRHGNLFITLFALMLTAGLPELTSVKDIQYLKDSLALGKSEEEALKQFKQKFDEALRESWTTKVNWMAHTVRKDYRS
PI3K β, sequence (P27986 whole entry partner): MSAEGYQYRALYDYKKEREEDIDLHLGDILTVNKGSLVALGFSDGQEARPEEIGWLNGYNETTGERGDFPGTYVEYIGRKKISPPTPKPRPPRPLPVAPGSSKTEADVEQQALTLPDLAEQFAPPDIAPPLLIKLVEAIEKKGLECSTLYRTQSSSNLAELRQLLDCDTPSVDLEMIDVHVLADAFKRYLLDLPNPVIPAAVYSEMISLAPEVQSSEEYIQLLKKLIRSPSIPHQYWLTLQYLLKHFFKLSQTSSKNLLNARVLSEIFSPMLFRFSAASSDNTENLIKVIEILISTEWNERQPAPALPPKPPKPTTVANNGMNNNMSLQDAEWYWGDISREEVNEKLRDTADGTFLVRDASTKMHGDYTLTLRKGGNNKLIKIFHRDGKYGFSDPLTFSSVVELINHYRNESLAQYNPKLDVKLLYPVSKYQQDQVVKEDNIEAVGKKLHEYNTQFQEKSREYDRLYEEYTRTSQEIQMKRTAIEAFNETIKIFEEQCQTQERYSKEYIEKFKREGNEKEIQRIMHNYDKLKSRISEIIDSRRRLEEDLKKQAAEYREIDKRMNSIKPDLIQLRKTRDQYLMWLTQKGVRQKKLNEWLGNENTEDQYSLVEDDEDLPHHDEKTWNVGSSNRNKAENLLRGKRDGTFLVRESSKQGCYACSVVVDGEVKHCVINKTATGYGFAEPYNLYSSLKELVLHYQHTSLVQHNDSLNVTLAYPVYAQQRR
PI3K α, sequence (P42336 whole entry): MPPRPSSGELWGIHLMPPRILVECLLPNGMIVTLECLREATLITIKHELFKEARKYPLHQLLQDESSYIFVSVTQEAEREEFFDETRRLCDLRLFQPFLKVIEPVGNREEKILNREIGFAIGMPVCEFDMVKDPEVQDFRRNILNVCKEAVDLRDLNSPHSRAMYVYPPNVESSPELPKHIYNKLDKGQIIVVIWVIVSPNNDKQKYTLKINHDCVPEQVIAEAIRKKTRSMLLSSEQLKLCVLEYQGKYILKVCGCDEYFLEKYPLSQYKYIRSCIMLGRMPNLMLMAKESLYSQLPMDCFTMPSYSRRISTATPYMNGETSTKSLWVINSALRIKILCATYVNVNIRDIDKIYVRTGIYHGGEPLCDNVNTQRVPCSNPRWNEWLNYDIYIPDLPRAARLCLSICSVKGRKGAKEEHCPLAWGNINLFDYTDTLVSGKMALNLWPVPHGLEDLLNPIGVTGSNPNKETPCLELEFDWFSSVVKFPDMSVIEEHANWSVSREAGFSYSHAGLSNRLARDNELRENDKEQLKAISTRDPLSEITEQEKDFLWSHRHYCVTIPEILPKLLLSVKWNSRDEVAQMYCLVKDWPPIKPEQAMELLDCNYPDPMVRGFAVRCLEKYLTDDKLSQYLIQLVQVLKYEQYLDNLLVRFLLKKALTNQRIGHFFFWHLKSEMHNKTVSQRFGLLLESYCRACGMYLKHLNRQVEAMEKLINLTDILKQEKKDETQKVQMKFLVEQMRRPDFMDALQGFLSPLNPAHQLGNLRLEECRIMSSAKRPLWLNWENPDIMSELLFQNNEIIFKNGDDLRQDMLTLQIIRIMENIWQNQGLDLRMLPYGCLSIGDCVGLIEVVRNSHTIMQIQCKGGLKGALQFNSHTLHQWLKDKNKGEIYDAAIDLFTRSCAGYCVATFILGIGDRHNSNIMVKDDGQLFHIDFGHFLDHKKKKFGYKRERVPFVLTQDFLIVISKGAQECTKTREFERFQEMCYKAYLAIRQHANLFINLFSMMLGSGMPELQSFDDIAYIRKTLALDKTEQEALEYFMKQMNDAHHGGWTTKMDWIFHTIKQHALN
PI3K α, sequence (P27986 whole entry partner): as the sequence (P27986 whole entry partner) above
PI3K δ, sequence (O00329 whole entry): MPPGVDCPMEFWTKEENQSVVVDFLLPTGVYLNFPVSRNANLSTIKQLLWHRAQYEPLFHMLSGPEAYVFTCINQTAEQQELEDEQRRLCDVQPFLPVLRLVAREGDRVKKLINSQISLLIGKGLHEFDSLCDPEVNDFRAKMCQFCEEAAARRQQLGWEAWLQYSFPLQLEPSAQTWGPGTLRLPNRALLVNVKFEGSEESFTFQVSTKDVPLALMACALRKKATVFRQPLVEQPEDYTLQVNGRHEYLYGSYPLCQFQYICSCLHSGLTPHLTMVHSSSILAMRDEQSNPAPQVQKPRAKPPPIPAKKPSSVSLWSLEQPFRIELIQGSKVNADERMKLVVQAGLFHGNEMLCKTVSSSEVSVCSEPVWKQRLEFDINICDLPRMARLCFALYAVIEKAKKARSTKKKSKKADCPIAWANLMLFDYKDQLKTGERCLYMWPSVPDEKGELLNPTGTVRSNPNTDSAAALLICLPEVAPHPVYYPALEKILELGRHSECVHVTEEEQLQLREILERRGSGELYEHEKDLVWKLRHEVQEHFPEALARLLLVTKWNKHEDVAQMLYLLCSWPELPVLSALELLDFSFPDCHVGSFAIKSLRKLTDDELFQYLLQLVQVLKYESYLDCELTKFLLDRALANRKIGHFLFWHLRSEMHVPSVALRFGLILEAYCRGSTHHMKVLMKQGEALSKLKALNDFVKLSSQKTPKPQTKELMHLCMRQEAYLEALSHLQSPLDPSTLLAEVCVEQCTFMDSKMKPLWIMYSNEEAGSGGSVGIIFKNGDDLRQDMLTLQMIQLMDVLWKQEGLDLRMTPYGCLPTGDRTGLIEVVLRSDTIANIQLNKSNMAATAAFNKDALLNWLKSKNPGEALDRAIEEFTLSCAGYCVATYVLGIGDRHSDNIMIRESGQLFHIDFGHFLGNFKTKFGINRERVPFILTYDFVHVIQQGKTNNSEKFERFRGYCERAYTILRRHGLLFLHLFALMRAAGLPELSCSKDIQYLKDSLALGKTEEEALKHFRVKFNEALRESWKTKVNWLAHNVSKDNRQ
PI3K δ, sequence (P27986 whole entry partner): as the sequence (P27986 whole entry partner) above
PI3K γ, sequence (P48736 whole entry): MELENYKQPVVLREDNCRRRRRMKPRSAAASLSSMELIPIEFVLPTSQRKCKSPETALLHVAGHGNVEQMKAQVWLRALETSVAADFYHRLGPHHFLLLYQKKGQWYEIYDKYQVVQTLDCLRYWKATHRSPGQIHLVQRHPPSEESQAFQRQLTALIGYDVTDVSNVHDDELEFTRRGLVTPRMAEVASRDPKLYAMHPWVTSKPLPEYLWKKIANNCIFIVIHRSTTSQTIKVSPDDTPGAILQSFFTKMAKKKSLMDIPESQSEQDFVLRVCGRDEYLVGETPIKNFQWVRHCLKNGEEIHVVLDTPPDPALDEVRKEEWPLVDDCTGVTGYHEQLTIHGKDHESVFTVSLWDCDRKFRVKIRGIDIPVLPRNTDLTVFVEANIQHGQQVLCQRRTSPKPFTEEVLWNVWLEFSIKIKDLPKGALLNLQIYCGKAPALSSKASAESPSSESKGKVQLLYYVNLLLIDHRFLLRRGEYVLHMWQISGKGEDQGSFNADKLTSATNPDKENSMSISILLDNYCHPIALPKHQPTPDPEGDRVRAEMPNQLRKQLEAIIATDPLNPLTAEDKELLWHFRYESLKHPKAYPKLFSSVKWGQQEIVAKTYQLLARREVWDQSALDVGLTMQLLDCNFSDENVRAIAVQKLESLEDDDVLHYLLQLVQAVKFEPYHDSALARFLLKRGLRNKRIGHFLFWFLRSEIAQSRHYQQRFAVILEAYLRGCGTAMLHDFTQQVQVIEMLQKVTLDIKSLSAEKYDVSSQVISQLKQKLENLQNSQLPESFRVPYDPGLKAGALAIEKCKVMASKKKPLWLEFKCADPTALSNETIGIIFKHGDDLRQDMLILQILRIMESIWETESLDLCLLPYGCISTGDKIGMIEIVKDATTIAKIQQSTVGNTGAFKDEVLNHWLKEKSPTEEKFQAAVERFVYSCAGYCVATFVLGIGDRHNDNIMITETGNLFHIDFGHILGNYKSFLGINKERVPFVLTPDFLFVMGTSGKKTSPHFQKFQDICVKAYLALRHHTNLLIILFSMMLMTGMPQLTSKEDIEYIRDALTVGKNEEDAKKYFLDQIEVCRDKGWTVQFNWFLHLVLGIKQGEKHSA

- IC50 (PI3K α; [1]): < 10 µM
SMILES: O=C(c1cnc2ccc(-c3cnc4cc[nH]c4c3)cn12)N1CCOCC1 [Compound 534]

- IC50 (PI3K α; [1]): < 10 µM
SMILES: Cc1ncc(-c2ccc3ncc(C(=O)N4CCOCC4)n3c2)c2cc[nH]c12 [Compound 536]

- IC50 (PI3K α; [1]): < 10 µM
- IC50 (PI3K γ; [2]): < 10 µM
SMILES: Cn1ncc2c(-c3ccc4ncc(C(=O)N5CCOCC5)n4c3)cncc21 [Compound 537]

SMILES: Cc1ncc(-c2ccc3ncc(C(=O)N4C5CCC4COC5)n3c2)c2cn[nH]c12 [Compound 538]
- IC50 (mTOR; in vitro): > 10 µM
- IC50 (PI3K δ): < 10 µM

- IC50 (PI3K α; [1]): > 10 µM
- IC50 (PI3K β; [3]): > 10 µM
- IC50 (PI3K γ; [2]): > 10 µM
- IC50 (PI3K δ; in vitro): > 10 µM
SMILES: O=C(c1cnc2ccc(-c3cncc4c3cnn4CCO)cn12)N1CCOCC1 [Compound 539]

- IC50 (PI3K α; [1]): > 10 µM
- IC50 (PI3K β; [3]): < 10 µM
- IC50 (PI3K γ; [2]): > 10 µM
- IC50 (PI3K δ; in vitro): > 10 µM
SMILES: Cc1cc(-c2ccc3nc(N)oc3c2)cn2c(-c3ccncc3)nnc12 [Compound 543]

- IC50 (PI3K α): < 1 µM
- IC50 (PI3K γ): < 1 µM
SMILES: Nc1nc2cc(-c3ccc4ncc(C(=O)NCCOCCO)n4c3)ccc2o1 [Compound 550]

- IC50 (PI3K α; read-out: PI3K α IC50, Table 4): < 1 µM
- IC50 (PI3K β; read-out: PI3K β IC50, Table 4): > 10 µM
- IC50 (PI3K γ; read-out: PI3K γ IC50, Table 4): < 10 µM
- IC50 (PI3K δ; Table 4): > 10 µM
SMILES: CC1CN(C2CN(c3cnc4ccc(-c5ccc6oc(N)nc6c5)nc4n3)C2)CCO1 (stereo not drawn) [Compound 569]

- IC50 (PI3K α; read-out: PI3K α IC50, Table 4): < 1 µM
- IC50 (PI3K β; read-out: PI3K β IC50, Table 4): > 10 µM
- IC50 (PI3K γ; read-out: PI3K γ IC50, Table 4): < 10 µM
- IC50 (PI3K δ; Table 4): > 10 µM
SMILES: Nc1nc2cc(-c3ccc4ncc(N5CC(N6CC7CCC(C6)O7)C5)nc4n3)ccc2o1 [Compound 571]

SMILES: Nc1nc2cc(-c3ccc4ncc(N5C6CCC5COC6)cc4n3)ccc2o1 [Compound 574]
- IC50 (PI3K α; read-out: PI3K α IC50, Table 4): < 0.1 µM
- IC50 (PI3K β; read-out: PI3K β IC50, Table 4): < 10 µM
- IC50 (PI3K γ; read-out: PI3K γ IC50, Table 4): < 0.1 µM
- IC50 (PI3K δ): > 10 µM

- IC50 (PI3K α): < 0.1 µM
- IC50 (PI3K β): < 1 µM
- IC50 (PI3K γ): < 0.1 µM
SMILES: Nc1nc2cc(-c3ccc4ncc(N5CCNC(=O)C5)nc4n3)ccc2o1 [Compound 580]

SMILES: C[C@@H]1CN(c2cnc3ccc(-c4ccc5oc(N)nc5c4)nc3c2)CCN1 [Compound 599]
- IC50 (mTOR; Table 4): > 10 µM
- IC50 (PI3K γ; read-out: PI3K γ IC50, Table 4): < 10 µM
- IC50 (PI3K δ): < 10 µM

- IC50 (PI3K α; read-out: PI3K α IC50, Table 4): < 10 µM
- IC50 (PI3K γ; read-out: PI3K γ IC50, Table 4): < 10 µM
SMILES: C[C@@H]1COCCN1C1CN(c2cnc3ccc(-c4ccc5oc(N)nc5c4)nc3n2)C1 [Compound 600]

SMILES: Nc1nc2cc(-c3ccc4ncc(N5CC(N6C7CCC6COC7)C5)nc4n3)ccc2o1 [Compound 602]
- IC50 (PI3K α; read-out: PI3K α IC50): < 10 µM
- IC50 (PI3K β; read-out: PI3K β IC50, Table 4): > 10 µM
- IC50 (PI3K γ; read-out: PI3K γ IC50): > 10 µM
- IC50 (PI3K δ): > 10 µM

SMILES: C[C@@H]1CN(C2CN(c3cnc4ccc(-c5ccc6oc(N)nc6c5)nc4c3)C2)CCN1 [Compound 607]
- IC50 (mTOR; Table 4): > 10 µM
- IC50 (PI3K β; read-out: PI3K β IC50, Table 4): < 10 µM

- IC50 (PI3K α; read-out: PI3K α IC50, Table 4): < 0.1 µM
- IC50 (PI3K β; read-out: PI3K β IC50, Table 4): > 10 µM
- IC50 (PI3K γ; read-out: PI3K γ IC50, Table 4): < 0.1 µM
- IC50 (PI3K δ; Table 4): > 10 µM
SMILES: Nc1nc2cc(-c3ccc4ncc(N5CC6CCC(C5)O6)cc4n3)ccc2o1 [Compound 610]

SMILES: Nc1nc2cc(-c3ccc4ncc(N5CC(N6C7CCC6COC7)C5)cc4n3)ccc2o1 [Compound 618]
- IC50 (PI3K α; read-out: PI3K α IC50, Table 4): < 0.1 µM
- IC50 (PI3K β; read-out: PI3K β IC50, Table 4): > 10 µM
- IC50 (PI3K γ; read-out: PI3K γ IC50, Table 4): < 1 µM
- IC50 (PI3K δ): < 10 µM

- IC50 (PI3K α; read-out: PI3K α IC50, Table 4): < 10 µM
- IC50 (PI3K γ; read-out: PI3K γ IC50, Table 4): < 10 µM
SMILES: Nc1nc2cc(-c3cnc4ccc(N5CCOCC5)nc4c3)ccc2o1 [Compound 624]

- IC50 (PI3K α; read-out: PI3K α IC50, Table 4): < 10 µM
SMILES: CC(C)N1CCN(C2CN(c3cnc4ccc(-c5ccc6oc(N)nc6c5)nc4n3)C2)CC1 [Compound 628]

- IC50 (PI3K α; read-out: PI3K α IC50, Table 4): < 10 µM
- IC50 (PI3K β; read-out: PI3K β IC50, Table 4): < 10 µM
SMILES: CN1CCN(c2ccc3ncc(-c4ccc5oc(N)nc5c4)cc3n2)CC1 [Compound 631]

SMILES: Nc1nc2cc(-c3cnc4ccc(N5C6CCC5COC6)nc4c3)ccc2o1 [Compound 632]
- IC50 (PI3K α; read-out: PI3K α IC50): < 10 µM
- IC50 (PI3K β; read-out: PI3K β IC50, Table 4): > 10 µM
- IC50 (PI3K γ; read-out: PI3K γ IC50): < 10 µM
- IC50 (PI3K δ): > 10 µM

- IC50 (PI3K α; read-out: PI3K α IC50, Table 4): < 10 µM
SMILES: CC(C)(N)C(=O)N1CCN(c2ccc3ncc(-c4ccc5oc(N)nc5c4)cc3n2)CC1 [Compound 633]
